Values joined by “and” are separate entries in the source; they are usually repeats but may differ in a detail not shown here. Equal entries are not always repeated.
Assays:
[1] = target: hERG (human Ether-à-go-go-Related Gene) (Homo sapiens, UniProt Q12809); assay: hERG inhibition; format: in vitro ADME
Procedure: (§1) At pre-set time-points, blood concentration of JH4 was determined by LC-MS/MS analysis[22],[23]. Other chemicals were also tested using similar protocol. In vitro ADME studies (plasma protein binding, CYP inhibition, microsomal stability, plasma stability, and hERG inhibition) were performed by New Drug Development Center (Daegu, Korea) using standard protocols[24],[25].

Plasma stability, human = format: in vitro ADME
Procedure: as §1, with “For PK analysis, 5 mg/kg of JH4 in 10% DMSO, 5% […] solution were intravenously injected and 10 mg/kg of JH4 in 10% NMP and 90% PEG400 solution were orally delivered. At” for “At”

Plasma stability, rat = format: in vitro ADME
Procedure: as §1, with “For PK analysis, 5 mg/kg of JH4 in 10% DMSO, 5% […] solution were intravenously injected and 10 mg/kg of JH4 in 10% NMP and 90% PEG400 solution were orally delivered. At” for “At”

Lmna G609G/+ mouse [2] = assay: Heart rate (electrocardiographic analysis); format: in vivo; settings: LMNA G609G/+ mice, SLC-D011 for 6 weeks
From the text: Fig. 4 Oral administration of SLC-D011 suppresses premature aging features. A Gross morphology of SLC-D011-treated (D011) mice at 8 weeks old. Body size of treated mouse was apparently larger than that of the untreated control (Con) mouse. B Oral administration of SLC-D011 increases body weights of Lmna^G609G/G609G mice. Compared with untreated control group, body weight of treated mouse was increased by ~35%, *p < 0.05. C Oral administration of SLC-D011 extends the life span of Lmna^G609G/G609G mouse. SLC-D011 in monoolein-based solution was treated by oral gavage (50 mg/kg, daily) from 5 weeks old. […] E Grip test of Lmna^G609G/+ mice at 41-week-old was performed after administration of SLC-D011 for 6 weeks. The test was repeated 10 times for each mouse (n > 4), **p < 0.001. Data are presented as mean ± SD. […] H Anti-aging effects of single treatment of SLC-D011 or lonafarnib were measured in HGPS patients-derived cells (AG11513, AG03199, AG11498, and AG03198, Coriell Cell Repositories). […] No unit is printed with them; the x axis reads Age (weeks). / Panel C: Ave=16.8 / Max=18 are printed beside the dashed curve of the control (Con). […]
For analysis of heart rate, mice were anesthetized with 2.5% isoflurane and monitored using LOGIQ E9 (GE Healthcare). […] Each estimate given corresponded to total reads measured ten times, excluding the minimum and the maximum from each group of animals.

Lmna G609G/+ mouse [3] = assay: Radiological examination (kyphosis index, incisors); format: in vivo; settings: Lmna G609G/+ mice
Procedure: The radiographic study was performed in anaesthetized living mice using a human radiographic system (College of Veterinary Medicine, Gyeongsang National University, Korea). A single radiograph of right lateral view of the whole body was obtained. Age-matched (at 41 weeks old) Lmna^+/+ mice, untreated Lamn^G609G/+ mice, and progerinin-treated Lmna^G609G/+ mice were radiographed. The images were recorded in DICOM format and then transferred to a personal computer. KI[28],[30] and abnormalities of the incisors were evaluated. Data processing and analysis were performed using a RadiAnt DICOM system in Institute of Animal Medicine, College of Veterinary Medicine, Gyeongsang National University (Jinju, Korea). […]
LmnaG609G transgenic mice at 41 weeks of age. Abundant adipose tissues are present in abdomens of
Lmna+/+ and progerin- treated LmnaG609G/+ mice compared to untreated LmnaG609G/+ mice. Kyphosis Index
(KI) index was accessed after 8-week treatment.
untreated LmnaG609G/+, and D011- treated LmnaG609G/+ mice at 41 weeks of age (unpaired t-test), *p < 0.05.
Severity of kyphosis depends on genotype and treatment of SLC-D011. H. Gross morphology of age-

Chain of hERG (human Ether-à-go-go-Related Gene) (Q12809 whole entry): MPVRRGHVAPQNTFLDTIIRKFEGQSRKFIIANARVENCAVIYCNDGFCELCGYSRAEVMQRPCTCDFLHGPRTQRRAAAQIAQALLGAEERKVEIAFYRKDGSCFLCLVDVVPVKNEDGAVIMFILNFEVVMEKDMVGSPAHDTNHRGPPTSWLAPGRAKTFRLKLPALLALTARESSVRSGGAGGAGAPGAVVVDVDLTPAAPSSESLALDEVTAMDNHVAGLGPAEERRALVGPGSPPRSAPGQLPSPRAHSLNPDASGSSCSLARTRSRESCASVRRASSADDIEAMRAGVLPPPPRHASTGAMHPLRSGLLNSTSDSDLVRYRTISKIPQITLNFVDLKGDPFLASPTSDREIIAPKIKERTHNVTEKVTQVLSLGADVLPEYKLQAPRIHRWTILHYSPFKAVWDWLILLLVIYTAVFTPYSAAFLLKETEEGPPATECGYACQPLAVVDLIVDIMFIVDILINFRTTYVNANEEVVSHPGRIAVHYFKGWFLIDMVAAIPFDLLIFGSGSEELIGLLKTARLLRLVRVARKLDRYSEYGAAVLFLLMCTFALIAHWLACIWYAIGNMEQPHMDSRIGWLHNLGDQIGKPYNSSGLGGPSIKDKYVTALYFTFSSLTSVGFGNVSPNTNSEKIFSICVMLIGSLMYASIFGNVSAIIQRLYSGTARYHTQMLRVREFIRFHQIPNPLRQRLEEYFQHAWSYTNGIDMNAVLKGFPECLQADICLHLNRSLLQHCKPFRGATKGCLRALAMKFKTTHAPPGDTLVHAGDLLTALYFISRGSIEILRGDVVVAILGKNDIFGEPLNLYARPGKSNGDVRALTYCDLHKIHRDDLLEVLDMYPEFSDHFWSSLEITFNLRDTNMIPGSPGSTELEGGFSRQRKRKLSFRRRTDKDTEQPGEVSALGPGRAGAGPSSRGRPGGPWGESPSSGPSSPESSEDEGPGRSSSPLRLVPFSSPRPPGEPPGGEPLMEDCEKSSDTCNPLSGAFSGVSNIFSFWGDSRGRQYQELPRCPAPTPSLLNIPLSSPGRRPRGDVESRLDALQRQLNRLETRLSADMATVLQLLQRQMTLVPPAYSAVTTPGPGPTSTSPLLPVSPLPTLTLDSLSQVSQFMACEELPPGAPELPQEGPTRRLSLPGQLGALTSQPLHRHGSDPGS

In the case of CC1(C)Oc2cc3oc(=O)ccc3cc2C[C@@H]1OC/C=C/c1ccccc1 [SLC-D011], the “hERG inhibition (in words)” value [1] is reported as “without severe hERG inhibition”, the “hERG inhibition: % Inhibition” value ([1]; Conc: 1uM) is reported as 14.673±4.74% and the “hERG inhibition: % Inhibition” value ([1]; Conc: 10uM) is reported as 66.31±16.77%. The remaining at 0.5 h (Plasma stability, human; 30min) was > 100%, the remaining at 2 h (Plasma stability, human; 120min) was > 100% and the remaining at 0.5 h (Plasma stability, rat; 30min) was 83.6%. For the same compound, the remaining at 2 h (Plasma stability, rat; 120min) was 75.1%, the Heart rate (Lmna G609G/+ mouse [2]) was 462 bmp and 447 bmp and 432 bmp and 454 bmp and the Abnormalities of incisors (Lmna G609G/+ mouse [3]; 41 weeks of age) was “ameliorated these abnormalities”. For the same compound, the “Kyphosis index (KI)” value (Lmna G609G/+ mouse [3]; 41 weeks of age) was “recovered”, the Kyphosis index (Lmna G609G/+ mouse [3]; Ave) was 4.2583 and the Kyphosis index (Lmna G609G/+ mouse [3]; individual mouse) was 3.759 and 3.649 and 5.045 and 4.58.
